Source: patent US20040209891A1, “Treatment of type 2 diabetes with inhibitors of dipeptidyl peptidase IV” (priority 2001, published 2004)
Counter-ions that a name gives are not always drawn.

Key:
[1] = target: Human DP-IV (Homo sapiens, UniProt P27487); type: biochemical; conditions: substrate Ala-Pro-AFC, fluorescence
Description: The in vitro inhibitory action of the compounds is determined in a fluorimetric assay. Human DP-IV is incubated with a standard substrate, Ala-Pro-AFC, in the presence of various concentrations of the inhibitor. The reaction is monitored by measuring the increase in fluorescence due to the reaction product, AFC. Using standard manipulations, an inhibitory constant, Ki, is determined.

[2] = system: ZDF rat; assay: Effect of long-term inhibition of DP-IV in ZDF rat (four weeks dosing); type: in vivo; conditions: male ZDF rats; for Glycaemia: day of development of significant hyperglycaemia: obese control hyperglycaemic at day 8
Description: Control animals are given vehicle. A group of untreated lean rats is used as a comparison. Glycaemia, insulinaemia, body weight, food and water intake, and plasma triglyceride and free fatty acid levels are monitored throughout the study.

Sequence of Human DP-IV (P27487 whole entry): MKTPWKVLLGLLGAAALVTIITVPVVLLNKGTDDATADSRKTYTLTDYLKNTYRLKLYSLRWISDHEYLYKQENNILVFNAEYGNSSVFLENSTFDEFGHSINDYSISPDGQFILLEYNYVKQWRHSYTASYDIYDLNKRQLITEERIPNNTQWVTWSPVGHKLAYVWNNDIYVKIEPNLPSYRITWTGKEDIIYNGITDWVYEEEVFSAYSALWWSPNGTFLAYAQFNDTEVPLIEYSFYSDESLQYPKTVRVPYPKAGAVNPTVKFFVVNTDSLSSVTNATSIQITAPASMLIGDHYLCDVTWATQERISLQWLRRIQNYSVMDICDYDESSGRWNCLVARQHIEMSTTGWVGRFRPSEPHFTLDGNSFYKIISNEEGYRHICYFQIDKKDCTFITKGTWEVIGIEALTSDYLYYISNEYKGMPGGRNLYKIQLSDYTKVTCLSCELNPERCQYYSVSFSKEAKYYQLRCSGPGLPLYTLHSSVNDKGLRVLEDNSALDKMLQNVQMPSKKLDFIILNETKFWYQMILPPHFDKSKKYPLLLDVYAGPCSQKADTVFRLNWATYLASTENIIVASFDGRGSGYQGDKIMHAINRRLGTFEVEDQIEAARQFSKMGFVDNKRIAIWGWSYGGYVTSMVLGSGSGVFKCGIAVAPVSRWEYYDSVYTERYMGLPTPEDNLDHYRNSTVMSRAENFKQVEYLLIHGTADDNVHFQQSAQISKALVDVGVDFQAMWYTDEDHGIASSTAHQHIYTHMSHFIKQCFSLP

N#C[C@@H]1CCCN1C(=O)[C@@H](N)CCCNC(=O)c1cnccn1 [Example 1B, (2S)-1-((2′S)-2′-amino-5′-pyrazinecarbonylaminopentanoyl)pyrrolidine-2-carbonitrile trifluoroacetate]
Ki [1]: 0.4 nM

CC(C)(C)[C@H](N)C(=O)N1CCC[C@H]1C#N [Example 1A, (2S)-1-((2′S)-2′-amino-3′,3′-dimethylbutanoyl)pyrrolidine-2-carbonitrile hydrochloride]
Glycaemia: day of development of significant hyperglycaemia ([2]; 10 mg/kg p.o. once daily): 15 days
Insulinaemia: day on which peak insulin level is reached ([2]; 10 mg/kg p.o. once daily, obese control peak by day 8): 11 days
Glycaemia: day of development of significant hyperglycaemia ([2]; 10 mg/kg p.o. twice daily): 24 days
